{
  "source": "ChEMBL document CHEMBL5465560",
  "about": "“Selectivity Literature for EUbOPEN Chemogenomic Library” (2024)",
  "key": {"[1]": {"test_system": "Epidermal growth factor receptor (Homo sapiens), P00533 [UNDEFINED MUTATION]", "sequence (P00533 whole entry, looked up, change not shown)": "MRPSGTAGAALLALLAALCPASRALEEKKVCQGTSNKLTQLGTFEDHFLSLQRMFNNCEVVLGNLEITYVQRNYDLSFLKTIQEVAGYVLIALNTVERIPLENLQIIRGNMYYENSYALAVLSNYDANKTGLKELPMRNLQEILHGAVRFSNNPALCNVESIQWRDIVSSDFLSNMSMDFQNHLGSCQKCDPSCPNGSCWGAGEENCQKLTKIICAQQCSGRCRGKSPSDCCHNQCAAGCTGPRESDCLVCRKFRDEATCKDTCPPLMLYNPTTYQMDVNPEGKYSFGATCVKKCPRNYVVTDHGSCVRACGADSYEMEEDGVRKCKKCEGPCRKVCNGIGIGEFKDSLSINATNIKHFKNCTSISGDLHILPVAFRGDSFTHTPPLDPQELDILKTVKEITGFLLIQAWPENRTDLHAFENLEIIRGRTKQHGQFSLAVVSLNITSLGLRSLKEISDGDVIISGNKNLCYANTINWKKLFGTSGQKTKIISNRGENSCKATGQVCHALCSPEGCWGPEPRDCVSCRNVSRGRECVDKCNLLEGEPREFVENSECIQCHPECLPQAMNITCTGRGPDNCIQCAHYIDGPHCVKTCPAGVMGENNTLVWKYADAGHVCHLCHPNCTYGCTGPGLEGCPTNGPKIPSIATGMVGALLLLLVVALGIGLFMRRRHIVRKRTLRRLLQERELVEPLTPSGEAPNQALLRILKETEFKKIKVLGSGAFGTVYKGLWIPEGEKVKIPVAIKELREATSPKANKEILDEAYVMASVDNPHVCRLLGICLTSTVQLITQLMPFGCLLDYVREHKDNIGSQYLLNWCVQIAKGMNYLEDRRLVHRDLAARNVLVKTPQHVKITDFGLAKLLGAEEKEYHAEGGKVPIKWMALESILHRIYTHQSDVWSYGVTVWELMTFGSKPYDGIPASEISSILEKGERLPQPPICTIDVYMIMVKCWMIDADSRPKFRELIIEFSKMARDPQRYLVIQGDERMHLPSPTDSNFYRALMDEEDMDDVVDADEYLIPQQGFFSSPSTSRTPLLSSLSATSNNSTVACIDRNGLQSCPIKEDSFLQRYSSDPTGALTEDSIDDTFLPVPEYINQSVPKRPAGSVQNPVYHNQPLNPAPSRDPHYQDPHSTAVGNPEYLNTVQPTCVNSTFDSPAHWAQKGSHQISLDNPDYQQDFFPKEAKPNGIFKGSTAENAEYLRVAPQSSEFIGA", "assay": "Selectivity interaction (KinomeScan (DiscoverX)) EUB0001049a EGFR", "settings": "at 1 µM"}, "[2]": {"biological_target": "T1, Dual specificity mitogen-activated protein kinase kinase 7 (Homo sapiens) (UniProt O14733)", "T1 sequence (whole entry)": "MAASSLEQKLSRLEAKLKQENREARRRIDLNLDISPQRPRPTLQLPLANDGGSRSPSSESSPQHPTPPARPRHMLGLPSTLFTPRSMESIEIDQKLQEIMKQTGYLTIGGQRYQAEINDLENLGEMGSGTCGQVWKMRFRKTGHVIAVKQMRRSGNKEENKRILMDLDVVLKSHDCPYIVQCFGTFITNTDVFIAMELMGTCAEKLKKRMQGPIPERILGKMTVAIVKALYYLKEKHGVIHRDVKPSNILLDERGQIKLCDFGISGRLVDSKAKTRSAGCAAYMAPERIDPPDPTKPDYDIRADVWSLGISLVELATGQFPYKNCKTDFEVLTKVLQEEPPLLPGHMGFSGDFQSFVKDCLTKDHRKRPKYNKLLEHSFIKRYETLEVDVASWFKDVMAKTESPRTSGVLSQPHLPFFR", "assay": "Selectivity interaction (Millipore kinase profiler) EUB0000124b MAP2K7", "settings": "at 10 µM"}, "[3]": {"biological_target": "T2, Serine/threonine-protein kinase D3 (Homo sapiens) (UniProt O94806)", "T2 sequence (whole entry)": "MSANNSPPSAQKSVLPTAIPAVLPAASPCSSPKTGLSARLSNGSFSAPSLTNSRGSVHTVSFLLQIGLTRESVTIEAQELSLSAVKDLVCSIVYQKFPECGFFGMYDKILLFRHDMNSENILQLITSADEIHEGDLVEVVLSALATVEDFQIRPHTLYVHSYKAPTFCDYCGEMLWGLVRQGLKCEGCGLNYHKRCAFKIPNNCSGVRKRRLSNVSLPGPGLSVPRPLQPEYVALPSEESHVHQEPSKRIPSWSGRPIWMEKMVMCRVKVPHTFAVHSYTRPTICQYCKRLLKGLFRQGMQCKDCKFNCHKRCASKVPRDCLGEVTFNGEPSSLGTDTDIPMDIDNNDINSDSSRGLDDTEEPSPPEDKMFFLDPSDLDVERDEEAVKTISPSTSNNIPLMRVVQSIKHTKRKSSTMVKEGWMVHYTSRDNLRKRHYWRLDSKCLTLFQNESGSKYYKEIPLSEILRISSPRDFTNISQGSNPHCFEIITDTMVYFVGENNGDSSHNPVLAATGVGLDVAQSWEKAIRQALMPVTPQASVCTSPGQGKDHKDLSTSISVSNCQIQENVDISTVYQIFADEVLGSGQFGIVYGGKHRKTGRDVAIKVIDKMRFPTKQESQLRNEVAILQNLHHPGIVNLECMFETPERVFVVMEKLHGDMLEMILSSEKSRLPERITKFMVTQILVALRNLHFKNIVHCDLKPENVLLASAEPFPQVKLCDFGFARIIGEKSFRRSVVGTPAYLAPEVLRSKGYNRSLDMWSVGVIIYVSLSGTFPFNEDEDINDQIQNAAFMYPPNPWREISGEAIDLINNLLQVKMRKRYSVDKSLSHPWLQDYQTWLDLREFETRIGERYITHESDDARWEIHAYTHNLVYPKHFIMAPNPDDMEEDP", "assay": "Selectivity interaction (KinomeScan (DiscoverX)) EUB0000666a PRKD3", "settings": "at 10 µM"}, "[4]": {"biological_target": "Ribosomal protein S6 kinase alpha-1 (Homo sapiens, UniProt Q15418)", "sequence (Q15418 whole entry)": "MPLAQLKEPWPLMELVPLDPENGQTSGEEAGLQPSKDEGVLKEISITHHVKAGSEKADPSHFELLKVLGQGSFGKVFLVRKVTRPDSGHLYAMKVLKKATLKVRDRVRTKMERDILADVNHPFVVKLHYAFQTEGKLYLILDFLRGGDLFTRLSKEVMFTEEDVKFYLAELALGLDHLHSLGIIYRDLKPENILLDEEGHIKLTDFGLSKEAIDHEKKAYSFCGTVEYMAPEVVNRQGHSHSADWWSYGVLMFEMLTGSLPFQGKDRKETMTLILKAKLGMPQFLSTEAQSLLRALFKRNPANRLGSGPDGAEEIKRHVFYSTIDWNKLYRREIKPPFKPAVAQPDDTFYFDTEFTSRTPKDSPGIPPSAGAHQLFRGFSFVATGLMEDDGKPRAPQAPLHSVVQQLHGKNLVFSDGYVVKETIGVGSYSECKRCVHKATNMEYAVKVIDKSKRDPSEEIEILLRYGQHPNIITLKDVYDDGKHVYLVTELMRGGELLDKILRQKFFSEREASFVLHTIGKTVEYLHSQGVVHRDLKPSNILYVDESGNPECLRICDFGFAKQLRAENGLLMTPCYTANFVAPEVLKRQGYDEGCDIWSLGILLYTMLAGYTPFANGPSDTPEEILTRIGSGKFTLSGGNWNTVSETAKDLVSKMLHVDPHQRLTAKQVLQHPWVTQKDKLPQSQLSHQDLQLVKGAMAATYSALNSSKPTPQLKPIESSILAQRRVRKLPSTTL", "assay": "Selectivity interaction (ActivX KiNativ screen (kinase selectivity in THP-1 cell lysates)) EUB0000639a RPS6KA1", "type": "subcellular", "settings": "lysate, at 5 µM"}, "[5]": {"biological_target": "Serine/threonine-protein kinase PAK 3 (Homo sapiens) (UniProt O75914)", "sequence (O75914 whole entry, looked up)": "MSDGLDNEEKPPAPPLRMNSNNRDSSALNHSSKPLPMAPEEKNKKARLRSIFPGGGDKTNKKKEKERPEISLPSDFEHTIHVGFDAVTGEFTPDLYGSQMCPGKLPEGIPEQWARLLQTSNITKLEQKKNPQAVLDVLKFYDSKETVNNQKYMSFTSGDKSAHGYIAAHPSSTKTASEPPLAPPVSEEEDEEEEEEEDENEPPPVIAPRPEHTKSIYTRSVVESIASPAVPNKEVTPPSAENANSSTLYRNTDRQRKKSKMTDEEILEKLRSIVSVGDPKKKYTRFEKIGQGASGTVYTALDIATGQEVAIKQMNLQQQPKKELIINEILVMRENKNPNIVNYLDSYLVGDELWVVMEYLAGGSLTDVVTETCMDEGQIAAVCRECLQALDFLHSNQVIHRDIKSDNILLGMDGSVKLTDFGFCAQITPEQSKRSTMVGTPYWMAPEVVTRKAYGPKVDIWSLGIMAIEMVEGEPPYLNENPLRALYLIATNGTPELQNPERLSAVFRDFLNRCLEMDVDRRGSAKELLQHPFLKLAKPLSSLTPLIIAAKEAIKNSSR", "assay": "Selectivity interaction (KinomeScan (DiscoverX)) EUB0000695a PAK3", "settings": "at 100 nM"}, "[6]": {"biological_target": "T3, Ankyrin repeat and protein kinase domain-containing protein 1 (Homo sapiens) (UniProt Q8NFD2)", "T3 sequence (whole entry)": "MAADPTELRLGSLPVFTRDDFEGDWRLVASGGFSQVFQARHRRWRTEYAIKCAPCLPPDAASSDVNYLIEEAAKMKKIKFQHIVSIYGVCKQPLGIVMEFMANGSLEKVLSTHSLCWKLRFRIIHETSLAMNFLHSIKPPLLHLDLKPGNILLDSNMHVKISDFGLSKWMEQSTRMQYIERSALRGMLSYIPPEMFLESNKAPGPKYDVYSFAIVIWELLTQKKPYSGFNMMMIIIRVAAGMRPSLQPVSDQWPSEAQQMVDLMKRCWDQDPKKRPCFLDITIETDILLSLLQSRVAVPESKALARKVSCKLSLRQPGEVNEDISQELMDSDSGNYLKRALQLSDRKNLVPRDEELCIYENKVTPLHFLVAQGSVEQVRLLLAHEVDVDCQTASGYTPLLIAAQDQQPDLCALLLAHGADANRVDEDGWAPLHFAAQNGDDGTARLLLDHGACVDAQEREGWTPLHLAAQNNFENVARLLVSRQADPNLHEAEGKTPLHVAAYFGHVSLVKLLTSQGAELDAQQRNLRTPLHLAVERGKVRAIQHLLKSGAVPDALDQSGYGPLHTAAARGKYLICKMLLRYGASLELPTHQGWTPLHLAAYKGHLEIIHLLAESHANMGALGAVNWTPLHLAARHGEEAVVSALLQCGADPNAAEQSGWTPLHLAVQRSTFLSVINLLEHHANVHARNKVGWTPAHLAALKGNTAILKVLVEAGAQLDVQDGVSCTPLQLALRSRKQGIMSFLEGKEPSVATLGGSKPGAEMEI", "assay": "Selectivity interaction (KinomeScan (DiscoverX)) EUB0000607a ANKK1", "settings": "at 10 µM"}, "[7]": {"biological_target": "T4, Serine/threonine-protein kinase 4 (Homo sapiens) (UniProt Q13043)", "T4 sequence (whole entry)": "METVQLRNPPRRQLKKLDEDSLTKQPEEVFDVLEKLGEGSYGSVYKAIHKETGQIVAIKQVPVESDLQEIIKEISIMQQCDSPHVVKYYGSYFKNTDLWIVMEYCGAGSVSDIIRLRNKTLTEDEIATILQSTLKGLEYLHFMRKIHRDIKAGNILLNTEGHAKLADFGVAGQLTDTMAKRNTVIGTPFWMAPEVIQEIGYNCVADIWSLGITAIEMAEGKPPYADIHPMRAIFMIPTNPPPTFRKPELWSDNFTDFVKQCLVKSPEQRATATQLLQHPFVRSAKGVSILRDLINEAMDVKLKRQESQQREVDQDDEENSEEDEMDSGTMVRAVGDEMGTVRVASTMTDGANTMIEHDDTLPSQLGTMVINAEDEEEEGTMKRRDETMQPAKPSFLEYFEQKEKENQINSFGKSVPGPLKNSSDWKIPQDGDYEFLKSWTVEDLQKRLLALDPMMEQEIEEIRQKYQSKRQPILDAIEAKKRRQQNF", "assay": "Selectivity interaction (Kinase panel (Z-LYTE Assay)) EUB0001632a STK4", "settings": "at 10 µM"}, "[8]": {"biological_target": "Dual specificity mitogen-activated protein kinase kinase 1 (Homo sapiens, UniProt Q02750)", "sequence (Q02750 whole entry)": "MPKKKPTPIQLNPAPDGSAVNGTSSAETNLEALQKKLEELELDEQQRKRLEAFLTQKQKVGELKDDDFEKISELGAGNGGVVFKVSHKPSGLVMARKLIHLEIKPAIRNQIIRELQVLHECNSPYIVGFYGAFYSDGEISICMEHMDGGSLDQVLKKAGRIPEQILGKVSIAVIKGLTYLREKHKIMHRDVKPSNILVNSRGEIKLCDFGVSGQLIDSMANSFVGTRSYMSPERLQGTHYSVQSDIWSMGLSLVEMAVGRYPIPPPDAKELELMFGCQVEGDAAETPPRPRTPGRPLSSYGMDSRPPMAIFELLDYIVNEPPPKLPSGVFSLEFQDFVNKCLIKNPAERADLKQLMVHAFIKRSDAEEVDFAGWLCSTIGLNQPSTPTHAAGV", "assay": "Selectivity interaction (LanthaScreen Eu Kinase Binding Assay) EUB0001632a MAP2K1", "settings": "at 10 µM"}},
  "data": [
    {"smiles": "COc1cc(Nc2nc(C)cc(-c3cnn4nc(OC)ccc34)n2)cc(C(F)(F)F)c1", "values": [
      {"measurement": "% of control", "setting": "[1]", "result": 100, "unit": "%"}
    ]},
    {"smiles": "CC(=O)Nc1cccc(-n2c(=O)n(C3CC3)c(=O)c3c(Nc4ccc(I)cc4F)n(C)c(=O)c(C)c32)c1", "values": [
      {"measurement": "% of control", "setting": "[2]", "result": 109, "unit": "%"}
    ]},
    {"smiles": "O=C(NOC[C@H](O)CO)c1ccc(F)c(F)c1Nc1ccc(I)cc1F", "values": [
      {"measurement": "% of control", "setting": "[3]", "result": 70, "unit": "%"}
    ]},
    {"smiles": "CC[C@@H]1[C@H](F)C(=O)N[C@@H]1COc1nccc2cc(C(N)=O)c(OC)cc12", "note": "[ZIMLOVISERTIB]", "values": [
      {"measurement": "% of inhibition", "setting": "[4]", "result": 0.2, "unit": "%"}
    ]},
    {"smiles": "Cc1cc(F)c(C(=O)Nc2cccc(-c3nncn3C(C)C)n2)cc1-n1cnc(C2CC2)c1", "values": [
      {"measurement": "% of control", "setting": "[5]", "result": 89, "unit": "%"}
    ]},
    {"smiles": "CNC(=O)Nc1ccc(-c2nc(N3CC4CCC(C3)O4)c3cnn(C4CCC5(CC4)OCCO5)c3n2)cc1", "values": [
      {"measurement": "% of control", "setting": "[6]", "result": 77, "unit": "%"}
    ]},
    {"smiles": "Cn1cc(-n2cnc3c(NCc4nc5cc(Cl)c(Cl)cc5[nH]4)nc(N4CCOCC4)nc32)cn1", "values": [
      {"measurement": "% of control", "setting": "[7]", "result": -9.12, "unit": "%"},
      {"measurement": "% of inhibition", "setting": "[8]", "result": -15.4, "unit": "%"}
    ]}
  ]
}
